In ChEMBL document CHEMBL1141575, “Preparation and in vitro biological evaluation of tetrapyrrole ethanolamide derivatives as potential anticancer agents” (Bioorg Med Chem Lett, 2008):

Columns and labels:
[1] = test system: Daudi; experiment: Cytotoxicity against human Daudi cells under deem light after 96 hrs by MTT assay; type: functional, cell-based
[2] = Survival of human 2780.9S cells at 100 uM under deem light after 96 hrs by MTT assay relative to control; type: functional; conditions: read-out: Survival
[3] = test system: NCI-H69; experiment: Survival of human H69 cells at 100 uM under deem light after 96 hrs by MTT assay relative to control; type: functional; conditions: NCI-H69, 96 h, read-out: Survival
[4] = test system: Raji; experiment: Survival of human Raji cells at 0.1 uM under deem light after 96 hrs by MTT assay relative to control; type: functional; conditions: read-out: Survival
[5] = test system: HeLa; experiment: Survival of human HeLa cells at 10 uM under deem light after 96 hrs by MTT assay relative to control; type: functional; conditions: read-out: Survival
[6] = test system: K562; experiment: Cytotoxicity against human K562 cells under deem light after 96 hrs by MTT assay; type: functional, cell-based; conditions: K562, 96 h
[7] = test system: HeLa; experiment: Cytotoxicity against human HeLa cells under deem light after 96 hrs by MTT assay; type: functional, cell-based
[8] = test system: SiHa; experiment: Survival of human SIHA cells at 10 uM under deem light after 96 hrs by MTT assay relative to control; type: functional; conditions: read-out: Survival
[9] = test system: SiHa; experiment: Survival of human SIHA cells at 1 uM under deem light after 96 hrs by MTT assay relative to control; type: functional; conditions: read-out: Survival
[10] = Survival of human MDA-MB cells at 0.1 uM under deem light after 96 hrs by MTT assay relative to control; type: functional; conditions: read-out: Survival
[11] = Survival of human 2780.9S cells at 0.1 uM under deem light after 96 hrs by MTT assay relative to control; type: functional; conditions: read-out: Survival
[12] = Survival of human H209 cells at 10 uM under deem light after 96 hrs by MTT assay relative to control; type: functional; conditions: NCI-H209, 96 h, read-out: Survival
[13] = Photohemolysis in human RBC assessed as concentration required to 50% hemolysis under light exposure for 10 mins; type: ADME, cell-based, Erythrocyte; conditions: human red blood cells, read-out: Activity
[14] = Cytotoxicity against human 2780.9S cells under deem light after 96 hrs by MTT assay; type: functional, cell-based
[15] = Survival of human 2780.9S cells at 1 uM under deem light after 96 hrs by MTT assay relative to control; type: functional; conditions: read-out: Survival
[16] = test system: HeLa; experiment: Survival of human HeLa cells at 1 uM under deem light after 96 hrs by MTT assay relative to control; type: functional; conditions: read-out: Survival
[17] = test system: NCI-H69; experiment: Survival of human H69 cells at 50 uM under deem light after 96 hrs by MTT assay relative to control; type: functional; conditions: NCI-H69, 96 h, read-out: Survival
[18] = test system: K562; experiment: Survival of human K562 cells at 0.1 uM under deem light after 96 hrs by MTT assay relative to control; type: functional; conditions: K562, 96 h, read-out: Survival
[19] = test system: SiHa; experiment: Cytotoxicity against human SIHA cells under deem light after 96 hrs by MTT assay; type: functional, cell-based
[20] = test system: Raji; experiment: Survival of human Raji cells at 50 uM under deem light after 96 hrs by MTT assay relative to control; type: functional; conditions: read-out: Survival
[21] = test system: NCI-H69; experiment: Survival of human H69 cells at 1 uM under deem light after 96 hrs by MTT assay relative to control; type: functional; conditions: NCI-H69, 96 h, read-out: Survival
[22] = Survival of human 2780.9S cells at 50 uM under deem light after 96 hrs by MTT assay relative to control; type: functional; conditions: read-out: Survival
[23] = Photohemolysis in human RBC at 520 nM under exposure to light for 10 mins; type: ADME, cell-based, Erythrocyte; conditions: human red blood cells, read-out: Activity
[24] = test system: HeLa; experiment: Survival of human HeLa cells at 100 uM under deem light after 96 hrs by MTT assay relative to control; type: functional; conditions: read-out: Survival
[25] = test system: Raji; experiment: Survival of human Raji cells at 10 uM under deem light after 96 hrs by MTT assay relative to control; type: functional; conditions: read-out: Survival
[26] = Cytotoxicity against human MDA-MB cells under deem light after 96 hrs by MTT assay; type: functional, cell-based
[27] = Survival of human H209 cells at 50 uM under deem light after 96 hrs by MTT assay relative to control; type: functional; conditions: NCI-H209, 96 h, read-out: Survival
[28] = test system: NCI-H69; experiment: Survival of human H69 cells at 10 uM under deem light after 96 hrs by MTT assay relative to control; type: functional; conditions: NCI-H69, 96 h, read-out: Survival
[29] = Photohemolysis in human RBC in absence of light; type: ADME, cell-based; conditions: erythrocyte
[30] = Survival of human H209 cells at 0.1 uM under deem light after 96 hrs by MTT assay relative to control; type: functional; conditions: NCI-H209, 96 h, read-out: Survival
[31] = test system: NCI-H69; experiment: Survival of human H69 cells at 0.1 uM under deem light after 96 hrs by MTT assay relative to control; type: functional; conditions: NCI-H69, 96 h, read-out: Survival
[32] = Survival of human MDA-MB cells at 100 uM under deem light after 96 hrs by MTT assay relative to control; type: functional; conditions: read-out: Survival
[33] = test system: SiHa; experiment: Survival of human SIHA cells at 50 uM under deem light after 96 hrs by MTT assay relative to control; type: functional; conditions: read-out: Survival
[34] = Survival of human H209 cells at 1 uM under deem light after 96 hrs by MTT assay relative to control; type: functional; conditions: NCI-H209, 96 h, read-out: Survival
[35] = test system: Raji; experiment: Cytotoxicity against human Raji cells under deem light after 96 hrs by MTT assay; type: functional, cell-based
[36] = test system: SiHa; experiment: Survival of human SIHA cells at 100 uM under deem light after 96 hrs by MTT assay relative to control; type: functional; conditions: read-out: Survival
[37] = test system: Raji; experiment: Survival of human Raji cells at 100 uM under deem light after 96 hrs by MTT assay relative to control; type: functional; conditions: read-out: Survival
[38] = test system: NCI-H69; experiment: Cytotoxicity against human H69 cells under deem light after 96 hrs by MTT assay; type: functional, cell-based; conditions: NCI-H69, 96 h
[39] = Survival of human MDA-MB cells at 1 uM under deem light after 96 hrs by MTT assay relative to control; type: functional; conditions: read-out: Survival
[40] = test system: K562; experiment: Survival of human K562 cells at 1 uM under deem light after 96 hrs by MTT assay relative to control; type: functional; conditions: K562, 96 h, read-out: Survival
[41] = test system: K562; experiment: Survival of human K562 cells at 100 uM under deem light after 96 hrs by MTT assay relative to control; type: functional; conditions: K562, 96 h, read-out: Survival
[42] = Survival of human MDA-MB cells at 50 uM under deem light after 96 hrs by MTT assay relative to control; type: functional; conditions: read-out: Survival
[43] = test system: K562; experiment: Survival of human K562 cells at 10 uM under deem light after 96 hrs by MTT assay relative to control; type: functional; conditions: K562, 96 h, read-out: Survival
[44] = Survival of human MDA-MB cells at 10 uM under deem light after 96 hrs by MTT assay relative to control; type: functional; conditions: read-out: Survival
[45] = test system: Raji; experiment: Survival of human Raji cells at 1 uM under deem light after 96 hrs by MTT assay relative to control; type: functional; conditions: read-out: Survival
[46] = test system: HeLa; experiment: Survival of human HeLa cells at 50 uM under deem light after 96 hrs by MTT assay relative to control; type: functional; conditions: read-out: Survival
[47] = Survival of human H209 cells at 100 uM under deem light after 96 hrs by MTT assay relative to control; type: functional; conditions: NCI-H209, 96 h, read-out: Survival
[48] = Photohemolysis in human RBC assessed as concentration required to 50% hemolysis under light exposure for 5 mins; type: ADME, cell-based, Erythrocyte; conditions: human red blood cells, read-out: Activity
[49] = test system: K562; experiment: Survival of human K562 cells at 50 uM under deem light after 96 hrs by MTT assay relative to control; type: functional; conditions: K562, 96 h, read-out: Survival
[50] = test system: HeLa; experiment: Survival of human HeLa cells at 0.1 uM under deem light after 96 hrs by MTT assay relative to control; type: functional; conditions: read-out: Survival
[51] = Survival of human 2780.9S cells at 10 uM under deem light after 96 hrs by MTT assay relative to control; type: functional; conditions: read-out: Survival

Structure (SMILES): C=Cc1c(C)c2cc3nc(c4c5[nH]c(cc6nc(cc1[nH]2)C(C)=C6CC)c(C)c5C(=O)[C@@H]4C(=O)OC)[C@@H](CCC(=O)OC)[C@@H]3C [METHYL PHEOPHORBIDE A]
- IC50 [1]: 25 µM
- viability at 100 µM [2]: 83.2%
- viability at 100 µM [3]: 63.6%
- viability at 0.1 µM [4]: 92.9%
- viability at 10 µM [5]: 72.1%
- IC50 [6]: > 100 µM
- IC50 [7]: 25 µM
- viability at 10 µM [8]: 90.8%
- viability at 1 µM [9]: 98%
- viability at 0.1 µM [10]: 128%
- viability at 0.1 µM [11]: 100%
- viability at 10 µM [12]: 91.7%
- HC50 at 10 min [13]: > 525 nM
- IC50 [14]: > 100 µM
- viability at 1 µM [15]: 94.9%
- viability at 1 µM [16]: 77.4%
- viability at 50 µM [17]: 76.7%
- viability at 0.1 µM [18]: 86%
- IC50 [19]: > 100 µM
- viability at 50 µM [20]: 106%
- viability at 1 µM [21]: 84.3%
- viability at 50 µM [22]: 90.1%
- hemolysis at 10 min, 0.52 µM [23]: 18%
- viability at 100 µM [24]: 36.7%
- viability at 10 µM [25]: 107%
- IC50 [26]: > 100 µM
- viability at 50 µM [27]: 85.2%
- viability at 10 µM [28]: 79%
- Activity [29]: Non-toxic
- viability at 0.1 µM [30]: 83.6%
- viability at 0.1 µM [31]: 70.7%
- viability at 100 µM [32]: 68.9%
- viability at 50 µM [33]: 81%
- viability at 1 µM [34]: 90.2%
- IC50 [35]: > 100 µM
- viability at 100 µM [36]: 68%
- viability at 100 µM [37]: 94.3%
- IC50 [38]: > 100 µM
- viability at 1 µM [39]: 115%
- viability at 1 µM [40]: 93.3%
- viability at 100 µM [41]: 106%
- viability at 50 µM [42]: 101%
- viability at 10 µM [43]: 97.3%
- viability at 10 µM [44]: 103%
- viability at 1 µM [45]: 102%
- viability at 50 µM [46]: 48.7%
- viability at 100 µM [47]: 82.3%
- HC50 at 5 min [48]: > 525 nM
- viability at 50 µM [49]: 97.3%
- viability at 0.1 µM [50]: 89.1%
- viability at 10 µM [51]: 93.4%
